Experimental findings from the RepoRT retention time repository (doi:10.1016/j.jhazmat.2019.121712) are described below.

The structures appear in SMILES notation.

The nature of this data set: Thermo Scientific Acclaim RSLC 120 C18, 100 × 2.1 mm, 2.2 µm, 30 °C; A: 90% water + 10% methanol + 0.01% formic acid + 5 mM ammonium formate; B: methanol + 0.01% formic acid + 5 mM ammonium formate; gradient (min/%B) 0.1/1 3/39 14/99.9 16/99.9. Particulars: stereoisomer not certain.
For `COC(=O)NC(=S)Nc1ccccc1NC(=S)NC(=O)OC`, the LC retention time was 6.93 min.
Consider `CCCc1nc(C)c2c(=O)[nH]c(-c3cc(C(=O)CN4CCN(CC)CC4)ccc3OCC)nn12`, for which the LC retention time came out at 7.16 min.
As to `CCCc1nn(C)c2c(=S)nc(-c3cc(S(=O)(=O)N4CCN(CCO)CC4)ccc3OCC)[nH]c12`, the LC retention time amounted to 10.5 min.
For the compound `CCCCCn1c2ccccc2c2cc(C(=O)c3cccc4ccccc34)ccc21`, the LC retention time worked out at 14.2 min.
Turning to `COC(=O)C1C2CC3c4[nH]c5cc(OC)ccc5c4CCN3CC2CC(OC(=O)c2cc(OC)c(OC)c(OC)c2)C1OC` (centres undefined), the LC retention time came out at 8.47 min.
The figure for `CCC1OC(=O)C(C)C(OC2CC(C)(OC)C(O)C(C)O2)C(C)C(OC2OC(C)CC(N(C)C)C2O)C(C)(OC)CC(C)C(=O)C(C)C(O)C1(C)O` (centres undefined) is 9.18 min; for `CCN(CC)CCCOC(=O)C1(c2ccccc2)CC2CCC1C2` (centres undefined) it is 8.54 min; for `COc1ncnc(NS(=O)(=O)c2ccc(N)cc2)c1OC` it is 4.75 min.
In the case of `CCCCN(CCCC)SN(C)C(=O)Oc1cccc2c1OC(C)(C)C2`, the LC retention time is 13.8 min.
As to `CN(C)CC1CCCCC1(O)c1cccc(O)c1` (centres undefined), the LC retention time is 4.06 min.
With `S=c1nc[nH]c2nc[nH]c12`, the LC retention time came out at 2.61 min.
With `CN(C)C1CSSSC1`, the LC retention time was found to be 3.16 min.
For the compound `CN1CCN(CCCN2c3ccccc3Sc3ccccc32)CC1`, the LC retention time was 8.8 min.
On to `Cc1cc(C(C)(C)C)c(O)c(C)c1CC1=NCCN1`, for which the LC retention time came to 6.99 min.
As to `CC(C)N(CCc1c[nH]c2ccccc12)C(C)C`, the LC retention time is 4.87 min.
For `CCN(CC)CCNC(=O)c1ccc(N)cc1`, the LC retention time stood at 2.83 min.
Turning to `CCOc1ccc2c3c1OC1C(O)C=CC4C(C2)N(C)CCC341` (centres undefined), the LC retention time was determined as 4.08 min.
As to `CN(C)C(CCOc1cccc2ccccc12)c1ccccc1` (centres undefined), the LC retention time was determined as 8.34 min.
On to `CNCCN1C(=O)C(OC(C)=O)C(c2ccc(OC)cc2)Sc2ccccc21` (centres undefined), for which the LC retention time worked out at 7.21 min.
On to `CCOP(=S)(OCC)SCS(=O)C(C)(C)C` (centres undefined), for which the LC retention time was 9 min.
Take `C=CC1(C)CC(OC(=O)CSCCN(CC)CC)C2(C)C(C)CCC3(CCC(=O)C32)C(C)C1O` (centres undefined): the LC retention time amounted to 7.71 min.
As for `COc1cccc(C2(O)CCCCC2CN(C)C)c1` (centres undefined), the LC retention time stood at 4.88 min.
Turning to `CC(Cc1ccccc1)N1C=C(NC(=O)N=C2C=CC(=O)C=C2)ON1` (centres undefined), the LC retention time stood at 7.24 min.
For the compound `COc1ccc(C(=O)c2cn(CCCCC(=O)O)c3ccccc23)cc1`, the LC retention time is 8.81 min.
Consider `CCCSP(=O)(OCC)SCCC`, for which the LC retention time stood at 10.2 min.
On to `O=C(O)CCCCn1cc(C(=O)c2cccc3ccccc23)c2ccccc21`, for which the LC retention time worked out at 9.71 min.
For the compound `COc1cc(Cc2cnc(N)nc2N)cc(OC)c1OC`, the LC retention time is 4.06 min.
For the compound `CCn1nc(C(=O)O)c(=O)c2cc3c(cc21)OCO3`, the LC retention time was found to be 5.32 min.
On to `CC(Cc1ccc(C(C)(C)C)cc1)CN1CC(C)OC(C)C1` (centres undefined), for which the LC retention time came to 10.7 min.
The value for `CNC(C)Cc1ccc(O)c(OC)c1` (centres undefined) was 3.19 min; that for `CC(C)=CC1C(C(=O)OCc2coc(Cc3ccccc3)c2)C1(C)C` (centres undefined) was 13.6 min.
With `Oc1ccc(C=Cc2cc(O)cc(O)c2)cc1`, the LC retention time amounted to 5.93 min.
Regarding `CCC1OC(=O)C(C)C(OC2CC(C)(OC)C(O)C(C)O2)C(C)C(OC2OC(C)CC(N(C)C)C2O)C(C)(O)CC(C)C(=NOCOCCOC)C(C)C(O)C1(C)O` (centres undefined), the LC retention time is 9.23 min.
Turning to `Cc1nccc2c1[nH]c1ccccc12`, the LC retention time amounted to 4.91 min.
In the case of `CCN(CC)C(=O)c1cccnc1`, the LC retention time was found to be 4.64 min.
For `CC(=O)Oc1c(C)cc(OCC(O)CNC(C)C)c(C)c1C` (centres undefined), the LC retention time came out at 6.28 min.
As for `CCCc1nn(C)c2c(=O)[nH]c(-c3cc(S(=O)(=O)N4CCN(Cc5ccccc5)CC4)ccc3OCC)nc12`, the LC retention time turned out to be 11.5 min.
On to `Cc1ccc(S(=O)(=O)NC(=O)NN2CCCCCC2)cc1`, for which the LC retention time was found to be 8.09 min.
Turning to `CCCCCn1nc(C(=O)c2cccc3ccccc23)c2ccccc21`, the LC retention time came out at 13.1 min.
Take `CCC(C)N(C(=O)SCc1ccccc1)C(C)CC` (centres undefined): the LC retention time amounted to 12.8 min.
Turning to `CCCCCn1cc(C(=O)c2cccc3ccccc23)cc1-c1ccccc1C`, the LC retention time amounted to 13.4 min.
On to `CCOC(=O)c1ccc(N)cc1`, for which the LC retention time stood at 6.27 min.
On to `NC(=O)CS(=O)C(c1ccccc1)c1ccccc1` (centres undefined), for which the LC retention time came out at 6.76 min.
The figure for `CC(=O)c1ccc2c(c1)N(CCCN(C)C)c1ccccc1S2` is 7.47 min; for `COc1ccc2c(c1)C13CCCCC1C(C2)N(C)CC3` (centres undefined) it is 6.51 min.
For the compound `c1cncc(C2CCCN2)c1` (centres undefined), the LC retention time is 3.14 min.
With `CCOc1ccccc1OS(=O)(=O)NC(=O)Nc1nc(OC)cc(OC)n1`, the LC retention time is 9.32 min.
Turning to `Cc1cccc(C)c1NC(=O)C1CCCCN1C` (centres undefined), the LC retention time was 4.66 min.
The value for `Cc1cccc2n[nH]nc12` was 5.83 min.
Consider `O=C(O)CCCn1cc(C(=O)c2cccc3ccccc23)c2ccccc21`, for which the LC retention time is 9.33 min.
Consider `CCOP(=O)(NC(C)C)Oc1ccc(S(C)(=O)=O)c(C)c1` (centres undefined), for which the LC retention time was found to be 7.21 min.
For `CCCCn1cc(C(=O)c2cccc3ccccc23)c2c(O)cccc21`, the LC retention time was found to be 12 min.
With `CCCc1nn(C)c2c(=O)[nH]c(-c3cc(S(=O)(=O)N4CCN(C5CCCC5)CC4)ccc3OCC)nc12`, the LC retention time came to 9.01 min.
Take `CCN(CC)C(=O)NC1C=C2c3cccc4[nH]cc(c34)CC2N(C)C1` (centres undefined): the LC retention time stood at 5.92 min.
Turning to `C=C1CC2C(CCC3(C)C(=O)CCC23)C2(C)C=CC(=O)C=C12` (centres undefined), the LC retention time is 9.03 min.
The value for `CC(C)(C)NCC(O)c1ccc(O)c(NC(N)=O)c1` (centres undefined) was 2.89 min.
`CC(C)(C)c1ccc(CCOc2ncnc3ccccc23)cc1`: the LC retention time came out at 13.7 min.
Turning to `COC(C)C(O)(C(=O)OCC1=CCN2CCC(O)C12)C(C)C` (centres undefined), the LC retention time was determined as 4.27 min.
Turning to `C1COC(NC(C2CC2)C2CC2)=N1`, the LC retention time is 4.4 min.
As to `NCC1(CC(=O)O)CCCCC1`, the LC retention time is 3.78 min.
For the compound `CNC(=O)ON=CC(C)(C)SC`, the LC retention time worked out at 6.17 min.
With `NC(=O)c1ccccc1Oc1ccccc1`, the LC retention time amounted to 7.79 min.
For `CCN1CCN(C(=O)NC(C(=O)NC2C(=O)N3C(C(=O)O)=C(CSc4nnnn4C)CSC23)c2ccc(O)cc2)C(=O)C1=O` (centres undefined), the LC retention time was found to be 4.36 min.
As to `CC(C1=C(CCN(C)C)Cc2ccccc21)c1ccccn1` (centres undefined), the LC retention time was 6.86 min.
On to `CC1=NNC(=O)N(N=Cc2cccnc2)C1`, for which the LC retention time turned out to be 4.01 min.
The value for `CC(N)C(O)c1ccccc1` (centres undefined) was 3.68 min; that for `COP(=S)(OC)Oc1ccc([N+](=O)[O-])cc1` was 9.24 min.
Turning to `CN1CCN(CCCN2c3ccccc3Sc3ccc(S(=O)(=O)N(C)C)cc32)CC1`, the LC retention time was 8.15 min.
The value for `CN1CCC(N(Cc2ccccc2)c2ccccc2)CC1` was 7.77 min.
